Reference: patent US20060135768A1, “Synthesis for hydroxyalkylated heterocyclic bases” (RIBAPHARM INC., priority 2002, published 2006)
Converted amounts (≈) assume the structure as drawn.

Experiment: Solubility of the heterocyclic base (adenine) in reaction solvents
Format: physicochemical

Solubility at 150° C. (solvent DEF): 13.9 mg/mL (≈ 103 mM) | Solubiity at RT (solvent DEF): 1.36 mg/mL | Solubility at 150° C. (solvent DMA): 37.0 mg/mL (≈ 274 mM) | Solubiity at RT (solvent DMA): 4.00 mg/mL | Solubility at 150° C. (solvent DMF): 29.0 mg/mL (≈ 215 mM) | Solubiity at RT (solvent DMF): 2.90 mg/mL
Structure (SMILES): Nc1ncnc2nc[nH]c12 [adenine]
